We go through two compounds from ChEMBL document CHEMBL1148079, “Zarzissine, a new cytotoxic guanidine alkaloid from the Mediterranean sponge Anchinoe paupertas” (J Nat Prod, 1994).

The test system of experiment [1] is Candida albicans. In words: Antimicrobial activity against Candida albicans at 100 ug after 18 hrs by paper disk agar diffusion method. The format is functional. The settings on record: read-out: IZ. Background: Agar diffusion results depend on both activity and mobility in agar.
The test system of experiment [2] is P388. The experiment is described as follows: Cytotoxicity against mouse P388 cells after 72 hrs by MTT assay. Type of experiment: functional, cell-based. The conditions noted are these: P388, 72 h.
The nature of experiment [3]: Cytotoxicity against human NSCLC-N6 cells after 72 hrs by MTT assay. Type of experiment: functional, cell-based. The settings on record: NSCLC-N6, 72 h. (In general: Tetrazolium dyes change colour on reduction, which living cells bring about.)
Experiment [4] has as its system KB. In words: Cytotoxicity against human KB cells after 72 hrs by MTT assay. The format is functional, cell-based.
The subject of experiment [5] is Staphylococcus aureus. The experiment is described as follows: Antimicrobial activity against Staphylococcus aureus at 100 ug after 18 hrs by paper disk agar diffusion method. Type of experiment: functional. The settings on record: read-out: IZ.
Experiment [6] deals with Candida tropicalis. In words: Antimicrobial activity against Candida tropicalis at 100 ug after 18 hrs by paper disk agar diffusion method. The format is functional. The conditions noted are these: read-out: IZ.

≈ marks a conversion by molar mass, not a printed value.

For `Nc1nc2cnncc2[nH]1`, the zone of inhibition at 100 µg/disc in experiment [1] is 10 mm; in experiment [5], 12 mm; in experiment [6] it was 11 mm. For the same compound, the IC50 (usually the concentration that gives 50% inhibition) amounted to 12 µg/mL (≈ 88.8 µM) in experiment [2], 10 µg/mL (≈ 74 µM) in experiment [3] and 5 µg/mL (≈ 37 µM) in experiment [4].
With `O=Cc1ccc(O)cc1` [4-HYDROXYBENZALDEHYDE], the results for the zone of inhibition at 100 µg/disc in experiment [1], in experiment [5] and in experiment [6] were 7 mm, 8 mm and 7 mm, respectively.
